Values joined by “and” are separate entries in the source; they are usually repeats but may differ in a detail not shown here. Identical values can stand only once.
Columns and labels:
[1] = heat capacity at constant pressure per volume; xn = mol fraction of the nth substance listed; settings: 101 kPa, Liquid, Large sample (1 g) DSC, x1 = 0.497
[2] = refractive index (other wavelength) (dimensionless); xn = mol fraction of the nth substance listed; settings: 101 kPa, Liquid, Wavelength=632.8 nm, Standard Abbe refractometry

N#Cc1ccccc1 [benzonitrile] + CCCCCCCCC
[1]
Settings	heat capacity
278.51 K	1795700 J/K/m3
279.06 K	1803600 J/K/m3
279.55 K	1808700 J/K/m3
280 K	1811600 J/K/m3
280.41 K	1816400 J/K/m3
280.77 K	1824500 J/K/m3
281.11 K	1829200 J/K/m3
281.41 K	1830500 J/K/m3
281.68 K	1829700 J/K/m3
281.93 K	1835700 J/K/m3
282.15 K	1841800 J/K/m3
282.35 K	1845300 J/K/m3
282.53 K	1847600 J/K/m3
282.7 K	1849700 J/K/m3
282.85 K	1856600 J/K/m3
282.98 K	1859600 J/K/m3
283.1 K	1862200 J/K/m3
283.21 K	1866700 J/K/m3
283.31 K	1869700 J/K/m3
283.4 K	1868700 J/K/m3
283.49 K	1873100 J/K/m3
283.56 K	1868300 J/K/m3
283.69 K	1880300 J/K/m3
283.88 K	1913600 J/K/m3
283.95 K	1908800 J/K/m3
284.03 K	1934300 J/K/m3
284.09 K	1950500 J/K/m3
284.11 K	1960300 J/K/m3
284.12 K	1970200 J/K/m3
284.13 K	1977600 J/K/m3
284.15 K	1985800 J/K/m3
284.16 K	1998500 J/K/m3
284.18 K	2005300 J/K/m3
284.19 K	2006000 J/K/m3
284.2 K	2015800 J/K/m3
284.21 K	2022500 J/K/m3
284.22 K	2037100 J/K/m3
284.23 K	2046300 J/K/m3
284.24 K	2060600 J/K/m3
284.25 K	2071500 J/K/m3
284.26 K	2047100 J/K/m3 [middle of 6 runs]
284.27 K	1937800 J/K/m3 [middle of 5 runs]
284.28 K	1815400 J/K/m3 and 1840700 J/K/m3
284.29 K	1794400 J/K/m3
284.31 K	1776700 J/K/m3
284.33 K	1765400 J/K/m3
284.36 K	1750800 J/K/m3
284.42 K	1731200 J/K/m3
284.5 K	1715800 J/K/m3
284.61 K	1703600 J/K/m3
284.69 K	1698600 J/K/m3
284.79 K	1693000 J/K/m3
284.9 K	1688700 J/K/m3
284.97 K	1686600 J/K/m3
285.12 K	1680400 J/K/m3
285.21 K	1677900 J/K/m3
285.31 K	1676100 J/K/m3
285.43 K	1674300 J/K/m3
285.55 K	1671100 J/K/m3
285.68 K	1668100 J/K/m3
285.83 K	1666100 J/K/m3
286 K	1665000 J/K/m3
286.18 K	1662900 J/K/m3
286.38 K	1659800 J/K/m3
286.6 K	1659100 J/K/m3
286.85 K	1655600 J/K/m3
287.12 K	1655500 J/K/m3
287.42 K	1652700 J/K/m3
287.75 K	1650500 J/K/m3
288.12 K	1649500 J/K/m3
288.53 K	1647700 J/K/m3
288.97 K	1645800 J/K/m3
289.51 K	1644500 J/K/m3
290.01 K	1643400 J/K/m3
290.61 K	1641800 J/K/m3
291.29 K	1641000 J/K/m3
292.03 K	1639400 J/K/m3
292.42 K	1639400 J/K/m3
292.84 K	1638700 J/K/m3
293.28 K	1638100 J/K/m3
293.74 K	1637800 J/K/m3
294.24 K	1637400 J/K/m3
294.74 K	1636900 J/K/m3
295.28 K	1636500 J/K/m3
295.85 K	1636400 J/K/m3
296.45 K	1635800 J/K/m3
297.07 K	1635800 J/K/m3
297.73 K	1635500 J/K/m3
298.41 K	1635100 J/K/m3
299.14 K	1635100 J/K/m3
299.89 K	1634900 J/K/m3
300.7 K	1634900 J/K/m3
301.55 K	1634800 J/K/m3
302.43 K	1635000 J/K/m3
303.36 K	1635100 J/K/m3
304.34 K	1635200 J/K/m3
305.38 K	1635400 J/K/m3
306.45 K	1635600 J/K/m3
307.59 K	1635800 J/K/m3
308.79 K	1636100 J/K/m3
310.05 K	1636600 J/K/m3
311.36 K	1637200 J/K/m3
312.75 K	1637800 J/K/m3
314.12 K	1638500 J/K/m3

[2]
Settings	refractive index
278.24 K, x1 = 1	1.5324
279.25 K, x1 = 1	1.5319
281.33 K, x1 = 1	1.5308
282.96 K, x1 = 1	1.5301
284.3 K, x1 = 1	1.5294
285.4 K, x1 = 0.0945	1.4145
285.4 K, x1 = 0.2042	1.4234
285.4 K, x1 = 0.2947	1.4313
285.4 K, x1 = 0.3866	1.4402
285.4 K, x1 = 0.4969	1.452
285.4 K, x1 = 0.5967	1.4642
285.4 K, x1 = 0.6844	1.4759
285.4 K, x1 = 0.7992	1.4932
285.4 K, x1 = 0.865	1.504
285.43 K, x1 = 1	1.5288
